Several values for one entry are separate records, joined by “and”; a condition that tells them apart may be missing. Equal values may be shown once.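 96-well plates; 48 h exposure; 5 concentrations. Endpoints by linear interpolation between flanking doses. Not reached: highest tested concentration assigned. GI50 = concentration required for 50% inhibition of growth. TGI marks complete inhibition of growth.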

Among the test systems are 786-0 renal; HL-60(TB) leukemia; HOP-92 NSCLC; KM12 colon; LOX IMVI melanoma; MCF7 breast; MOLT-4 leukemia; NCI-H522 lung; SF-295 CNS; SNB-75 CNS.
Holding throughout (assay): NCI-60 cell line screen, 48 h

`CCc1ccc2c(c1)N(CCO)C1=C(C(=O)OC1)C2c1cccc(Br)c1` (centres undefined): the GI50 is 0.617 µM in the assay on 786-0 renal; 0.317 µM with HL-60(TB) leukemia; 3.15 µM with HOP-92 NSCLC; 0.336 µM in the assay with KM12 colon; 0.663 µM with LOX IMVI melanoma; 0.244 µM with MCF7 breast. The GI50 in the assay with MOLT-4 leukemia was 0.62 µM; in the assay on NCI-H522 lung, 0.173 µM; in the assay on SF-295 CNS it was 0.374 µM; with SNB-75 CNS it was 0.307 µM. Moreover, the TGI was 14.7 µM with 786-0 renal; 2.21 µM in the assay on HL-60(TB) leukemia; 21.5 µM in the assay with HOP-92 NSCLC; 12.5 µM in the assay with KM12 colon; 17.2 µM with LOX IMVI melanoma; 1.68 µM with MCF7 breast. The TGI in the assay with MOLT-4 leukemia stood at 19.3 µM; in the assay with NCI-H522 lung, 2.06 µM; in the assay on SF-295 CNS, 13.2 µM; in the assay with SNB-75 CNS it was 8.3 µM.
Take `Fc1ccc(/C=N/n2c(-c3ccc(F)c(Cl)c3)nn(CNc3ccccc3C(F)(F)F)c2=S)cc1`: the GI50 in the assay on 786-0 renal was 75.4 µM; with HL-60(TB) leukemia, 39.4 µM; in the assay with HOP-92 NSCLC, 17.6 µM; in the assay with KM12 colon, 29.3 µM; with LOX IMVI melanoma, 54.9 µM; in the assay on MCF7 breast, 30.7 µM. In addition, the GI50 in the assay on MOLT-4 leukemia was 28.4 µM; in the assay on NCI-H522 lung, 24.4 µM; in the assay with SF-295 CNS, 42.6 µM; with SNB-75 CNS it was above 100 µM. In addition, the TGI in the assay on 786-0 renal was above 100 µM; in the assay on HL-60(TB) leukemia, above 100 µM; in the assay with HOP-92 NSCLC it was 63.8 µM; in the assay on KM12 colon, above 100 µM; in the assay with LOX IMVI melanoma it was above 100 µM; in the assay on MCF7 breast, above 100 µM. Moreover, the TGI with MOLT-4 leukemia was above 100 µM; with NCI-H522 lung, 76.3 µM; with SF-295 CNS it was above 100 µM; in the assay on SNB-75 CNS, above 100 µM.
With `CCCCCCCCCCCCCCCCCC[n+]1ccc2c(C)c3c(c(C)c2c1)c1cc(O)ccc1n3CC`, the GI50 in the assay on 786-0 renal was 2.21 µM; in the assay on HL-60(TB) leukemia, 2.33 µM; with HOP-92 NSCLC it was 1.64 µM; with KM12 colon, 2.01 µM; in the assay on LOX IMVI melanoma, 2.73 µM; in the assay with MCF7 breast, 2.75 µM. The GI50 was 2.53 µM in the assay with MOLT-4 leukemia, 1.89 µM with NCI-H522 lung, 1.42 µM with SF-295 CNS and 2.27 µM in the assay with SNB-75 CNS. In addition, the TGI was 10.4 µM with 786-0 renal; 12.4 µM with HL-60(TB) leukemia; 5.68 µM with HOP-92 NSCLC; above 100 µM in the assay with KM12 colon; 10.3 µM in the assay with LOX IMVI melanoma; 17.1 µM in the assay on MCF7 breast. In addition, the TGI in the assay with MOLT-4 leukemia is 14.9 µM; in the assay on NCI-H522 lung, 18.1 µM; in the assay with SF-295 CNS, 4.3 µM; in the assay with SNB-75 CNS, 12 µM.
`CN[C@@H](C)C(=O)N[C@H](C(=O)N1CCC[C@H]1C(=O)Nc1sc(-c2ncco2)nc1-c1ccccc1)C1CCCCC1`: the GI50 was 28.2 µM in the assay with 786-0 renal; 16.9 µM in the assay with HL-60(TB) leukemia; 3.52 µM in the assay with HOP-92 NSCLC; 43.3 µM in the assay with KM12 colon; 18.5 µM with LOX IMVI melanoma; 21.7 µM in the assay with MCF7 breast. Besides, the GI50 was 29.2 µM in the assay with MOLT-4 leukemia, 10.2 µM in the assay on NCI-H522 lung, 52.9 µM in the assay on SF-295 CNS and 12.2 µM in the assay on SNB-75 CNS. Besides, the TGI with 786-0 renal is above 67.2 µM; in the assay with HL-60(TB) leukemia, 39.1 µM; with HOP-92 NSCLC it was 13.4 µM; with KM12 colon it was above 100 µM; with LOX IMVI melanoma, 34.8 µM; in the assay on MCF7 breast, above 100 µM. For the same compound, the TGI is 88.1 µM with MOLT-4 leukemia, 28.1 µM in the assay on NCI-H522 lung, above 100 µM in the assay with SF-295 CNS and 65.4 µM in the assay on SNB-75 CNS.
With `O=C1NC(=O)C(N2C(=O)c3ccccc3C2=O)CC1O` (centres undefined), the GI50 in the assay on 786-0 renal, in the assay with HL-60(TB) leukemia, in the assay on HOP-92 NSCLC, in the assay with KM12 colon, with LOX IMVI melanoma and in the assay with MCF7 breast was above 100 µM in each case. In addition, the GI50 in the assay with MOLT-4 leukemia, with NCI-H522 lung, in the assay on SF-295 CNS and in the assay on SNB-75 CNS was above 100 µM in each case. The TGI with 786-0 renal, with HL-60(TB) leukemia, in the assay with HOP-92 NSCLC, in the assay on KM12 colon, in the assay with LOX IMVI melanoma and with MCF7 breast was above 100 µM in each case. Moreover, the TGI in the assay on MOLT-4 leukemia, in the assay with NCI-H522 lung, in the assay with SF-295 CNS and in the assay on SNB-75 CNS was above 100 µM throughout.
As to `O=c1[nH]c(=O)n(C2CC(O)C(COP(=O)(OCc3ccc([N+](=O)[O-])o3)N(CCCCCl)CC(O)CO)O2)cc1F` (centres undefined), the GI50 is 0.624 µM in the assay with 786-0 renal; 0.0262 µM in the assay with HL-60(TB) leukemia; 0.156 µM in the assay on HOP-92 NSCLC; 1.87 µM in the assay on KM12 colon; below 0.0226 µM in the assay with LOX IMVI melanoma; below 0.01 µM in the assay on MCF7 breast. The GI50 with MOLT-4 leukemia is 0.285 µM; in the assay on NCI-H522 lung, 0.985 µM; in the assay with SF-295 CNS, 0.295 µM; with SNB-75 CNS it was 2.82 µM. Besides, the TGI in the assay with 786-0 renal, in the assay with HL-60(TB) leukemia, in the assay with KM12 colon, with LOX IMVI melanoma, in the assay on MCF7 breast and in the assay with MOLT-4 leukemia was above 100 µM each time. For the same compound, the TGI in the assay with NCI-H522 lung is 77.4 µM; in the assay with SF-295 CNS, above 25.1 µM; in the assay on SNB-75 CNS, above 100 µM.
Regarding `C=CC(=O)Nc1cccc(Oc2nc(Nc3ccc(N4CCN(C)CC4)cc3)nc3ccsc23)c1`, the GI50 was 1.3 µM and 2.07 µM in the assay on 786-0 renal; 1.43 µM in the assay with HL-60(TB) leukemia; 0.801 µM and 1.81 µM with HOP-92 NSCLC; 3.36 µM and 2.49 µM with KM12 colon; 1.69 µM and 1.75 µM in the assay on LOX IMVI melanoma; 2.22 µM and 1.72 µM in the assay on MCF7 breast. The GI50 in the assay on MOLT-4 leukemia is 2.53 µM and 1.72 µM; in the assay with NCI-H522 lung, 0.43 µM and 1.27 µM; in the assay on SF-295 CNS, 7.68 µM; in the assay on SNB-75 CNS, 1.54 µM and 2.1 µM. The TGI was 3.25 µM and 4.62 µM in the assay with 786-0 renal; 4.09 µM in the assay on HL-60(TB) leukemia; 6.47 µM and 4.97 µM in the assay on HOP-92 NSCLC; > 10 µM and 6.77 µM in the assay on KM12 colon; 3.09 µM and 3.33 µM in the assay with LOX IMVI melanoma; 8.96 µM and 4.48 µM in the assay on MCF7 breast. Further, the TGI in the assay with MOLT-4 leukemia is 7.08 µM and 5.53 µM; in the assay on NCI-H522 lung, 2.21 µM and 3.04 µM; in the assay on SF-295 CNS, > 10 µM and 21.3 µM; in the assay on SNB-75 CNS, > 10 µM and 10.5 µM.

The record behind these values is PubChem BioAssay (NCI).
